Source: PMC7733455, “A novel multistage antiplasmodial inhibitor targeting Plasmodium falciparum histone deacetylase 1” (Cell Discovery, 2020)
“And” between values parts separate entries of the source, which are not always exact repeats. Equal entries are not always repeated.

What was measured:
[1] = system: human HDACs; assay: Human HDAC inhibition assay, summary; assay type: biochemical
Protocol: (§1) SAHA and suramin were used as positive controls. The tested compounds were dissolved into 20 mM stock in 100% DMSO. […] Ten microliters of trypsin and Ac-peptide substrate/Tris buffer solution were added to start the reaction, followed by a 1-h incubation at room temperature for HDACs 1–3 and 6. Ten microliters of Ac-peptide substrate/Tris buffer solution was added to start the reaction, followed by a 4-h incubation at room temperature and a further 2-h incubation with trypsin solution for HDAC8 and Sirt 2. […] This experiment was performed only once.

[2] = system: asynchronous 3D7 parasites; assay: Time- and dose-dependent parasite inhibition assay; assay type: cell-based, Plasmodium falciparum
Protocol: Asynchronous parasites (2% parasitemia, 4% hematocrit) were treated with the tested compounds at a concentration of 10, 30, 60, or 100 nM, respectively. At 3, 6, 12, and 24 h post treatment, parasitemia of each sample was detected by flow cytometry to investigate the time-dependent activity. Parasites from the same treatment were further washed to remove compounds, and parasitemia was diluted 1:40 by new RBCs into CM for an additional 4 days of culture. Parasitemia of each sample was detected by flow cytometry as described above to investigate the dose-dependent activity. DMSO was used as a blank control.

[3] = In vitro cytotoxicity analysis (CellTiter-Glo), 293T; conditions: human, 293T cells, Cytotoxicity EC50, 293T, 72 h, CellTiter-Glo
Protocol: (§2) In all, 1% DMSO was used as a negative control. The inhibition of each drug was normalized to that of the DMSO control. EC50 was calculated by GraphPad Prism. Three independent assays with two technical replicates each time were conducted in this experiment.

[4] = system: 293T cells; assay: as above
Protocol: as §2

[5] = system: parasite histone H3 acetylation; assay: Western blot of histone H3 acetylation in parasites; assay type: cell-based, Plasmodium falciparum; conditions: 4 h treatment of asynchronous 3D7; quisinostat/JX21108 5 and 20 nM, SAHA 500 nM
Protocol: Then the parasite samples were harvested and treated with 0.15% saponin to remove the RBC proteins and sonicated in 1% NP40 lysis buffer. After centrifugation at 12,000× g for 15 min, the supernatant was resuspended in a routine SDS loading buffer. Parasite proteins were separated by 10% SDS-PAGE and transferred onto PVDF membranes (Millipore). […] A2348) followed by a secondary antibody conjugated with HRP (Jackson Immuno Research Laboratories). The chemiluminescent HRP substrate Immobilon Western Kit (Millipore) was used for signal detection.

[6] = biological target: T1, hHDAC2 (Homo sapiens, UniProt Q92769); assay: Human HDAC inhibition assay, hHDAC2; assay type: biochemical; conditions: performed only once; read-out: Inhibitory Activity IC50, hHDAC2
T1 construct: purchased BPS Bioscience 5002
T1 sequence (Q92769 whole entry): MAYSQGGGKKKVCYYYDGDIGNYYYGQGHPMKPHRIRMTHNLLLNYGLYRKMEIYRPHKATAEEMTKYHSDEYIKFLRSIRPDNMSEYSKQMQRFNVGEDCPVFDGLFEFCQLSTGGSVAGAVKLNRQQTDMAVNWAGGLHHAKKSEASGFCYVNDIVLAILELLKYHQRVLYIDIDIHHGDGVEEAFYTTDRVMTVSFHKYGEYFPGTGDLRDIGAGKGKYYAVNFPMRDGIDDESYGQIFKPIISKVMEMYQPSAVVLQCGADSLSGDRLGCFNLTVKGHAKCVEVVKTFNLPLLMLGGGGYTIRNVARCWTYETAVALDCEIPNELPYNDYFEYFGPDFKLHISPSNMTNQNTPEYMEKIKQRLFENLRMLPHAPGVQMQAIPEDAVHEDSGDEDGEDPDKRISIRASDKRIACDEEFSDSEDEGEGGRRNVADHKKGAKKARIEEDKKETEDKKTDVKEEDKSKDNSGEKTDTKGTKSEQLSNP
Protocol: as §1

[7] = system: P. falciparum NF54 stage II gametocytes; assay: In vitro gametocyte inhibition assay, stage II; assay type: cell-based, Plasmodium falciparum; conditions: NF54 luciferase line, 48 h exposure
Protocol: (§3) To test the activities of JX21108 against different gametocyte stages, the P. falciparum producer NF54^p230p-luc was utilized, as described previously. […] Luciferase intensity based on luciferase expression was detected as described above. The EC50 was calculated by GraphPad Prism. DMSO (1%) was used as a negative control.

[8] = Liver microsome metabolism assay, rat; assay type: in vitro ADME; conditions: rat liver microsomes
Protocol: (§4) Liver microsomes (0.5 mg/mL) were purchased from Corning. Ketanserin was selected as a positive control. The tested compounds were first dissolved in DMSO to a concentration of 10 mM and then diluted to 0.5 mM with acetonitrile. Liver microsome buffer was used to dilute the compounds to a working concentration of 1.5 µM, 30 µL of which was mixed with 15 µL of 6 mM NADPH at 37 °C. At 0, 5, 15, 30, and 45 min after incubation, 135 µL of acetonitrile was added to quench the reaction. The mixture was shaken on a vortex mixer (IKA, MTS 2/4) for 10 min at 600 rpm/min and then centrifuged at 5594× g for 15 min (Thermo Multifuge×3R). The supernatant was diluted 1:1 into distilled water, and analyzed by LC-MS/MS.

[9] = system: P. falciparum NF54 stage IV gametocytes; assay: In vitro gametocyte inhibition assay, stage IV; assay type: cell-based, Plasmodium falciparum; conditions: NF54 luciferase line, 48 h exposure
Protocol: as §3

[10] = Liver microsome metabolism assay, human; assay type: in vitro ADME
Protocol: as §4

[11] = system: 3D7^HDA1-TY1; assay: Sensitivity of transgenic parasites to JX21108, 3D7^HDA1-TY1; assay type: cell-based; conditions: Plasmodium falciparum, 3D7, 4 h, read-out: EC50 for 3D7^HDA1-TY1
Protocol: Highly synchronized schizont-stage parasites were prepared and treated as described above, with adjustments. […] After washing, parasites were cultured in new CM for another 68 h. Parasite growth was monitored by SYBR Green I staining, as described above. The EC50 was calculated by GraphPad Prism.

[12] = system: P. falciparum clinical isolates 6218 and 6320; assay: Ring-stage survival assay (RSA), isolates 6218 and 6320; assay type: cell-based, Plasmodium falciparum; conditions: 700 nM, isolates 6218 and 6320
Protocol: An RSA was performed as described previously[65] to evaluate the activity of JX21108 against the artemisinin- and piperaquine-resistant P. falciparum clinical isolates 6218 and 6320[43]. Briefly, parasites were highly synchronized at 0–3 hpi by a 60%/40%-Percoll gradient[66] followed by 5% D-sorbitol[67] treatment after 3 h. The parasite suspension (0.5%–1% parasitemia, 2% hematocrit) was incubated with compounds at 700 nM in a total volume of 2 mL in a 48-well plate for 6 h. After that, the culture mixture was washed three times with 15 mL of CM before another 66 h of cultivation with CM. A Giemsa-stained blood smear was made after cultivation. Parasitemia was counted from at least 10,000 RBCs by microscopy. The survival rate was calculated as the percentage of that in DMSO control. DHA at a concentration of 700 nM served as a positive control.

[13] = system: P. falciparum 3D7; assay: Ring-stage survival assay (RSA), sensitive strain 3D7; assay type: cell-based, Plasmodium falciparum; conditions: 700 nM
[14] = Plasmodium falciparum, NF54, 48 h

## Cl.Cn1cc(CN2CCC3(CCN(c4ncc(C(=O)NO)cn4)C3)C2)c2cc(C#N)ccc21 (stereo not shown) [JX21108]
[1]
  lower inhibitory activity on human HDACs than quisinostat: approximately 4 fold
[2]; 100 nM, 3 h, washed, 4 days culture
  parasite growth after 3 h of treatment: completely blocked parasite growth
[2]; 6-h treatment, washed, 1:40 dilution, 4 days culture
  parasitemia measured 4 days after 6-h treatment: substantial reduction in parasitemia
[2]; 10-100 nM, parasitemia immediately after treatment
  asexual growth of 3D7 after 12- and 24-h treatments: significantly inhibited the asexual growth of 3D7 parasites
[3]
  EC50 at 72 h: 1190 ± 233 nM
[4]
  Selectivity index for 293T (EC50 293T/EC50 3D7): ~ 331 and 334 and 331
[5]
  pan-acetylation levels of parasite histone H3: greatly increased the pan-acetylation levels of parasite histone H3
[6]
  IC50: 4.6 nM
[7]
  EC50: 38.8 ± 17.8 nM
[7]; [14]
  EC50: 38.8 ± 17.8 nM
[8]; read-out: CL in liver microsomes
  CLint scaled at 1 µM: 196 mL/min/kg
[8]; read-out: T1/2 in liver microsomes
  half-life at 1 µM: 0.211 h
[9]
  EC50: 5.9 ± 1.97 nM
[9]; [14]
  EC50: 5.85 ± 1.97 nM
[10]
  CL in liver microsomes: 3.34 mL/min/kg
[10]; human liver microsomes, read-out: T1/2 in liver microsomes
  half-life at 1 µM: 8.68 h
[11]
  EC50: 330 ± 57 nM
[12]
  RSA effect on ring-stage parasites: greatly inhibited parasite growth at ring stage of 6218 and 6320
[13]
  RSA effect on ring-stage parasites of 3D7: efficiently killed the ring-stage parasites
